Literature values in publication PMC12424150 (Drug Delivery, 2025).

Tests used:
[1] = ref Dhillon [2018]
[2] = parameters: method as in Wharton et al. [2023]; Lingvay et al. [2024]; settings: ref Wharton et al. [2023]; Lingvay et al. [2024]

| half-life in humans [1] [h] | Compound | average weight loss [2] |
| --- | --- | --- |
| 165 to 183 | CC[C@H](C)[C@H](NC(=O)[C@H](Cc1ccccc1)NC(=O)[C@H](CCC(=O)O)NC(=O)[C@H](CCCCNC(=O)COCCOCCNC(=O)COCCOCCNC(=O)CC[C@H](NC(=O)CCCCCCCCCCCCCCCCC(=O)O)C(=O)O)NC(=O)[C@H](C)NC(=O)[C@H](C)NC(=O)[C@H](CCC(N)=O)NC(=O)CNC(=O)[C@H](CCC(=O)O)NC(=O)[C@H](CC(C)C)NC(=O)[C@H](Cc1ccc(O)cc1)NC(=O)[C@H](CO)NC(=O)[C@H](CO)NC(=O)[C@@H](NC(=O)[C@H](CC(=O)O)NC(=O)[C@H](CO)NC(=O)[C@@H](NC(=O)[C@H](Cc1ccccc1)NC(=O)[C@@H](NC(=O)CNC(=O)[C@H](CCC(=O)O)NC(=O)C(C)(C)NC(=O)[C@@H](N)Cc1cnc[nH]1)[C@@H](C)O)[C@@H](C)O)C(C)C)C(=O)N[C@@H](C)C(=O)N[C@@H](Cc1c[nH]c2ccccc12)C(=O)N[C@@H](CC(C)C)C(=O)N[C@H](C(=O)N[C@@H](CCCNC(=N)N)C(=O)NCC(=O)N[C@@H](CCCNC(=N)N)C(=O)NCC(=O)O)C(C)C [semaglutide] |  |
|  | Glucagon-like peptide-1 [GLP-1] | up to 15% |
